The structures appear in SMILES notation. Entries after “also recorded” stand apart in the source; their conditions may differ.

The test system of experiment [1] is primary acute myeloid leukaemia (AML) blasts. Description: In vitro cytotoxicity assay (LD50) in primary acute myeloid leukaemia cells. The class given is cell-based, human. The conditions noted are these: primary AML blasts, 48 h; concentration required to kill 50% of the tumour cells in culture. How it is done: ProTide compounds, as defined herein, and the comparator ProTide compound NUC-1031 were assayed for their cytotoxic effects on primary cultures of acute myeloid leukaemia (AML) blasts. LD50 values (the concentration required to kill 50% of the tumour cells in culture) were calculated in respect of the ProTide compounds of the invention, and the parent compounds from which they are derived. […] The LD50 values of the ProTide compounds as defined herein (and their parent compounds) were compared with the comparator ProTide NUC-1031 and its parent compound gemcitabine.
Bone marrow samples were collected in ethylenediaminetetraacetic acid (EDTA) from newly diagnosed, previously untreated, acute myeloid leukaemia (AML) patients. AML blasts were enriched by density gradient centrifugation using Histopaque (Sigma, Poole, UK) and were subsequently maintained in Roswell Park Memorial Institute medium (RPMI) supplemented with 10% foetal bovine serum (FBS). Cells were treated with ProTide compounds (either as encompassed by the present invention, or the comparator ProTide NUC-1031) or with the ProTides' parent compounds at a range of experimental concentrations, and incubated for 48 h. All cultures were maintained at 37° C. in a 5% CO2 humidified atmosphere.
Cells were harvested and labelled with CD34-fluorescein isothiocyanate (FITC) (BD Biosciences, Buckingham, UK) and then resuspended in 200 μl of binding buffer containing 4 μl of annexin V labelled with allophycocyanin (APC) (eBioscience Ltd, Hatfield, UK). Apoptosis was quantified in the CD34^+ AML cells using an Accuri C6 flow cytometer (Becton Dickinson, CA, USA). At least 10,000 events were acquired and data were subsequently analysed using FlowJo software (Tree Star Inc., Ashland, Oreg., USA). All LD50 values (concentration of drug required to kill 50% of cells) were derived from the dose-response curves.

The test system of experiment [2] is Lin^−/CD34^+/CD38^−/CD123^+ cancer stem cells in KG1a cells. Kind of experiment: Immunophenotypic quantification of the leukaemic stem cell compartment in KG1a cells. It is filed as cell-based, human. The settings on record: KG1a cells. The procedure: The respective abilities of NUC-1031 and gemcitabine to target CSCs were investigated in the AML cell line KG1a.
KG1a cells were cultured for 72 hours in the presence of a wide range of concentrations of each nucleoside analogue and their respective ProTides. Cells were then harvested and labelled with a cocktail of anti-lineage antibodies (PE-cy7), anti-CD34 (FITC), anti-CD38 (PE) and anti-CD123 (PERCP cy5). The sub-population expressing a leukaemic stem cell (LSC) phenotype were subsequently identified and were expressed as a percentage of all viable cells left in the culture. The percentages of stem cells remaining were then plotted on a dose-response graph and the proportion of cancer stem cells was compared across the various concentrations of ProTides and their respective parent compounds, in order to determine if they preferentially target cancer stem cells.
The data obtained in these experiments were evaluated using one way ANOVA. All data was confirmed as Gaussian or a Gaussian approximation using the omnibus K2 test. LD50 values were calculated from the non-linear regression and line of best-fit analysis of the sigmoidal dose-response curves. All statistical analyses were performed using Graphpad Prism 6.0 software (Graphpad Software Inc., San Diego, Calif.).

Regarding `C[C@H](NP(=O)(OC[C@H]1O[C@@H](n2ccc(N)nc2=O)C(F)(F)[C@@H]1O)Oc1ccccc1)C(=O)OCc1ccccc1` (stereo partly drawn) [NUC-1031, 2′-deoxy-2′,2′-difluoro-D-cytidine-5′-O-[phenyl (benzoxy-L-alaninyl)] phosphate], the LD50 entry in experiment [1] is recorded as “NUC-1031 0.28 μM”. Moreover, the “selectivity against cancer stem cells compared to the parent compound” value in experiment [2] was “preferential targeting of CSCs; also recorded: statistically significantly greater”.

These data come from patent US11400107B2, “Cancer treatments” (NuCana plc, priority 2016, dated 2022).
